Assay results as given in ChEMBL document CHEMBL1201862, “PubChem BioAssay data set” (2004).
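Cultured in 96-well plates, cells were exposed to test compound for 48 hours across five concentrations. The concentration for 50% growth inhibition is given as GI50.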 Activity calls are given as the source filed them. Rule as the data show it: active = GI50 up to about 1.1 µM and inactive = higher.

Assays:
Test in all cases: inhibition of tumour cell growth, NCI panel, 48 h
K562 = system: K562
786-0 = system: 786-0
OVCAR-8 = system: OVCAR-8
A549 = system: A549
OVCAR-3 = system: OVCAR-3
HT-29 = system: HT-29
COLO 205 = system: COLO 205
SF-268 = system: SF-268
RXF 393 = system: RXF 393
SK-MEL-28 = system: SK-MEL-28
LOX IMVI = system: LOX IMVI
NCI-H23 = system: NCI-H23
HCT-15 = system: HCT-15
CAKI-1 = system: CAKI-1
HOP-62 = system: HOP-62
A498 = system: A498

SMILES | GI50 (K562) | GI50 (786-0) | GI50 (OVCAR-8) | GI50 (A549) | GI50 (OVCAR-3) | GI50 (HT-29) | GI50 (COLO 205) | GI50 (SF-268) | GI50 (RXF 393) | GI50 (SK-MEL-28) | GI50 (LOX IMVI) | GI50 (NCI-H23) | GI50 (HCT-15) [µM] | GI50 (CAKI-1) | GI50 (HOP-62) | GI50 (A498)
NC1=NS(=O)(=O)N=C(N)C1=Cc1ccc([N+](=O)[O-])o1 | 6.01 µM (inactive) | 17.1 µM (inactive) | 17.3 µM (inactive) | 52 µM (inactive) | 18.1 µM (inactive) | 18.2 µM (inactive) | 15.7 µM (inactive) | 17.5 µM (inactive) | 18.8 µM (inactive) | 16 µM (inactive) | 17.2 µM (inactive) | 17.3 µM (inactive) | 16.8 |  |  | 
NCCSc1cc(O)c2c(c1N)C(=O)c1ccccc1C2=O | 22.2 µM (inactive) | 29.9 µM (inactive) | 27.9 µM (inactive) | > 100 µM (inactive) | 43 µM (inactive) | 34.1 µM (inactive) |  | 55.8 µM (inactive) | 27.7 µM (inactive) | > 100 µM (inactive) |  | > 100 µM (inactive) | 29.3 | > 100 µM (inactive) | > 100 µM (inactive) | 91.2 µM (inactive)
BrC12C3C4C5C(C(C43)C13OCCO3)C52 (configuration not stated) | > 100 µM (inactive) | > 100 µM (inactive) | > 100 µM (inactive) | > 100 µM (inactive) | > 100 µM (inactive) | > 100 µM (inactive) | > 100 µM (inactive) | > 100 µM (inactive) | > 100 µM (inactive) | > 100 µM (inactive) | > 100 µM (inactive) | > 100 µM (inactive) |  |  | > 100 µM (inactive) | > 100 µM (inactive)
O=c1[nH]c(S)nc2c1sc(=S)n2-c1ccccc1 | > 100 µM (inactive) | > 100 µM (inactive) | > 100 µM (inactive) | > 100 µM (inactive) | > 100 µM (inactive) | > 100 µM (inactive) | > 100 µM (inactive) | > 100 µM (inactive) | > 100 µM (inactive) | > 100 µM (inactive) | > 100 µM (inactive) | > 100 µM (inactive) | > 100 | > 100 µM (inactive) | > 100 µM (inactive) | > 100 µM (inactive)
COC(=O)/C(C#N)=C1\CCC(OC)N1C (configuration not stated) | > 100 µM (inactive) | > 100 µM (inactive) | > 100 µM (inactive) | > 100 µM (inactive) | > 100 µM (inactive) | > 100 µM (inactive) | > 100 µM (inactive) | > 100 µM (inactive) | > 100 µM (inactive) | > 100 µM (inactive) | > 100 µM (inactive) | > 100 µM (inactive) | > 100 | > 100 µM (inactive) | > 100 µM (inactive) | 
Cc1cc2nc(O)c(CCC(=O)O)nc2cc1C | > 100 µM (inactive) | > 100 µM (inactive) | > 100 µM (inactive) | > 100 µM (inactive) | > 100 µM (inactive) | > 100 µM (inactive) | 70.6 µM (inactive) | > 100 µM (inactive) | > 100 µM (inactive) | > 100 µM (inactive) | > 100 µM (inactive) | > 100 µM (inactive) | > 100 | > 100 µM (inactive) | > 100 µM (inactive) | > 100 µM (inactive)
CCOC(=O)CCC(=O)C1c2cccc(O)c2C(=O)c2c(O)cccc21 | 0.37 µM (active) | 1.74 µM (inactive) | 1.58 µM (inactive) | 0.61 µM (active) | 0.942 µM (active) | 2.74 µM (inactive) | 2.01 µM (inactive) | 0.908 µM (active) | 0.71 µM (active) | 1.33 µM (inactive) | 0.604 µM (active) | 1.37 µM (inactive) |  | 2.36 µM (inactive) | 1.73 µM (inactive) | 
O=C1CC2=CCCC2O1 (configuration not stated) | > 100 µM (inactive) | > 100 µM (inactive) | > 100 µM (inactive) | > 100 µM (inactive) | > 100 µM (inactive) | > 100 µM (inactive) | > 100 µM (inactive) | > 100 µM (inactive) | > 100 µM (inactive) | > 100 µM (inactive) | > 100 µM (inactive) | > 100 µM (inactive) | > 100 | > 100 µM (inactive) | > 100 µM (inactive) | > 100 µM (inactive)
CC(C)CCC[C@@H](C)C1CCC2[C@@H]3CC=C4C[C@@H](C(=O)NCC[N+](C)(C)CCCS(=O)(=O)[O-])CC[C@]4(C)C3CC[C@@]21C (some centres not stated) | 14.2 µM (inactive) | 17.2 µM (inactive) | 18.8 µM (inactive) | 17.3 µM (inactive) | 16.4 µM (inactive) | 18 µM (inactive) | 17.5 µM (inactive) | 21.1 µM (inactive) | 20.9 µM (inactive) | 19.8 µM (inactive) | 11.7 µM (inactive) |  | 16.3 | 14.2 µM (inactive) | 24 µM (inactive) | > 10 µM (inactive)
CC(/C=C/NNC1=NN=C(c2ccccc2)C(c2ccccc2)N1)Sc1ccccc1N (configuration not stated) | 6.24 µM (inactive) | 3.71 µM (inactive) | 4.36 µM (inactive) | 11.4 µM (inactive) | 10.3 µM (inactive) | 11 µM (inactive) | 15.3 µM (inactive) | 4.53 µM (inactive) |  | 8.93 µM (inactive) | 3.18 µM (inactive) | 12.9 µM (inactive) | 4.89 | 14.7 µM (inactive) | 17.9 µM (inactive) | 13.6 µM (inactive)
COc1ccc([C@H]2CC3C(=O)N(c4ccc(OC)cc4)C(=O)C3c3[nH]c4ccccc4c32)cc1 (some centres not stated) | > 100 µM (inactive) | 10.8 µM (inactive) | 17.1 µM (inactive) | 47.4 µM (inactive) | > 100 µM (inactive) |  | 97.5 µM (inactive) | 82 µM (inactive) |  | 83.9 µM (inactive) | > 100 µM (inactive) | 54 µM (inactive) | 57.4 | > 100 µM (inactive) | 32.7 µM (inactive) | > 100 µM (inactive)
CC(C)c1ccccc1NC(=O)CCC(=O)NN | > 100 µM (inactive) | > 100 µM (inactive) |  | > 100 µM (inactive) | > 100 µM (inactive) |  |  | > 100 µM (inactive) |  | > 100 µM (inactive) | > 100 µM (inactive) | > 100 µM (inactive) | > 100 | > 100 µM (inactive) |  | 
COc1ccc(-c2cc(-c3cc(Cl)cc(Br)c3O)nc(O)n2)cc1 | 14.1 µM (inactive) | 15.5 µM (inactive) | 16.7 µM (inactive) | 16.7 µM (inactive) | 17.5 µM (inactive) | 17.7 µM (inactive) | 15.6 µM (inactive) | 16.3 µM (inactive) | 14.5 µM (inactive) | 19.9 µM (inactive) | 17.3 µM (inactive) | 14 µM (inactive) |  | 16.4 µM (inactive) | 14.1 µM (inactive) | 16.6 µM (inactive)
CCSc1nnc(-c2ccccc2)nc1Cc1ccc(OC)cc1 | 71.3 µM (inactive) | > 100 µM (inactive) | > 100 µM (inactive) | 42.2 µM (inactive) | 88.9 µM (inactive) | > 100 µM (inactive) | 86.9 µM (inactive) | > 100 µM (inactive) | > 100 µM (inactive) | > 100 µM (inactive) | 47.9 µM (inactive) | 63.4 µM (inactive) | 82 |  | > 100 µM (inactive) | 77.6 µM (inactive)
Cc1ccc2nc(NC(=O)C(=O)C(C#N)c3nc4ccccc4s3)sc2c1 (configuration not stated) | 29.2 µM (inactive) | 44.5 µM (inactive) | 30.4 µM (inactive) |  | 23.4 µM (inactive) | 26.8 µM (inactive) | 18 µM (inactive) | 51.6 µM (inactive) | 31.5 µM (inactive) | 51.8 µM (inactive) | 37.2 µM (inactive) | 35 µM (inactive) | 32 | 42.2 µM (inactive) | 14.5 µM (inactive) | 19.5 µM (inactive)
CN(C)CC1CC/C(=C\c2ccc(Cl)cc2)C1=O (configuration not stated) | 0.908 µM (active) | 2.2 µM (inactive) | 3.58 µM (inactive) | 20.4 µM (inactive) | 7.35 µM (inactive) | 5.71 µM (inactive) | 4.19 µM (inactive) | 7.03 µM (inactive) | 3.16 µM (inactive) | 3.3 µM (inactive) | 2.4 µM (inactive) | 8.13 µM (inactive) | 3.18 | 3.33 µM (inactive) | 22.4 µM (inactive) | 13.5 µM (inactive)
CC1(C)Oc2ccccc2N2O[C@@H]3C(=O)N(c4ccccc4)C(=O)[C@@H]3C21c1ccccc1 (some centres not stated) | 37.4 µM (inactive) | 16.6 µM (inactive) | > 10 µM (inactive) | 20.1 µM (inactive) | 21.2 µM (inactive) | 29 µM (inactive) | 39.1 µM (inactive) | 33.9 µM (inactive) | 23.7 µM (inactive) | 29.2 µM (inactive) |  | 97.7 µM (inactive) |  | 24.9 µM (inactive) | 16.8 µM (inactive) | 20.8 µM (inactive)
CSC(=O)C[C@@]12O[C@@H]([C@@H](C)C3CCC4[C@@H]5C(O)CC6=CC(=O)C=C[C@]6(C)C5CC[C@@]43C)C[C@](C)(O1)C(C)(C)O2 (some centres not stated) | 4.3 µM (inactive) | 16.1 µM (inactive) | 17.8 µM (inactive) | 15.5 µM (inactive) | 15.1 µM (inactive) | 14.5 µM (inactive) |  | 16.4 µM (inactive) | 11.6 µM (inactive) | 17.9 µM (inactive) | 12.1 µM (inactive) | > 10 µM (inactive) | 17.3 | 18.6 µM (inactive) | 18.2 µM (inactive) | 16.4 µM (inactive)
CC(=O)O[C@@H]1CC(C)C2CC2C2=C(C(O)OC2O)[C@@H]1C(C)CCC=C(C)C (some centres not stated) | 23.9 µM (inactive) | 21.4 µM (inactive) | 27 µM (inactive) | 22.7 µM (inactive) |  | 19 µM (inactive) | 18.2 µM (inactive) | 25.8 µM (inactive) | 17.3 µM (inactive) | 36.7 µM (inactive) | 20.8 µM (inactive) | 22.2 µM (inactive) | 22 | 26.4 µM (inactive) | 26.9 µM (inactive) | 35.7 µM (inactive)
